Columns and labels:
[1] = system: HDAC (extract from HeLa cells containing HDAC activity); experiment: HDAC colorimetric activity assay kit (BIOMOL), HeLa cell extract; format: biochemical, human
Experimental: Briefly, the tested compounds at different concentrations were added to 96-well plates, then mixed with extract from HeLa cells containing HDAC activity provided by the manufacturer. HDAC reactions were initiated by adding substrate. 10 minutes later, the reactions were stopped by addition of Color De Lys Developer. Microplates were read in a plate reader at 405 nm. Inhibition of HDAC activity was calculated following the instructions.

[2] = system: U2OS, human osteocarcinoma; experiment: Growth inhibition by MTS method, U2OS; format: cell-based; settings: 48 hours with compound, read-out: GI50 against U2OS
Experimental: (§1) Growth inhibition tests were carried out by MTS method. Approximately 72 hours before the viability assay, cells were seeded into 96-well plates at 5-10×10^3 cells/well (according to the growth rate of individual cell lines used). 24 hours later, the tested compounds at different concentrations were added, and the cells were cultured for 48 hours, then added 20 μl/well of CellTiter 96 AQueous One Solution Reagent containing tetrazolium compound (Promega) into each well. MTS was subsequently added to the culture medium. After incubation of the plates for 2 hours at about 37° C., the absorbance at 490 nm was recorded by a 96-well plate reader. Cell viability was calculated by Atreatment/Acontrol×100% (A represents the absorbance recorded at 490 nm). […] All of the compounds were dissolved in DMSO and were added to the culture at a 1:1000 dilution to give a final DMSO concentration of ≦0.1%. All samples were assayed in duplicate, and each experiment was repeated at least three times.

[3] = system: HeLa, human cervical carcinoma; experiment: Growth inhibition by MTS method, HeLa; format: cell-based; settings: 48 hours with compound, read-out: GI50 against HeLa
Experimental: as §1

[4] = system: DU-145, human prostate cancer; experiment: Growth inhibition by MTS method, DU-145; format: cell-based; settings: 48 hours with compound, read-out: GI50 against DU-145
Experimental: as §1

[5] = system: SMMC-7721, human hepatoma; experiment: Growth inhibition by MTS method, SMMC-7721; format: cell-based; settings: SMMC-721, 48 hours with compound, read-out: GI50 against SMMC-721
Experimental: as §1

[6] = system: HepG2, human hepatoblastoma; experiment: Growth inhibition by MTS method, HepG2; format: cell-based; settings: 48 hours with compound, read-out: GI50 against HepG2
Experimental: as §1

[7] = system: 293, human embryonic kidney; experiment: Growth inhibition by MTS method, 293; format: cell-based; settings: 48 hours with compound, read-out: GI50 against 293
Experimental: as §1

[8] = system: MCF-7, human breast adenocarcinoma; experiment: Growth inhibition by MTS method, MCF-7; format: cell-based; settings: MCF7, 48 hours with compound, read-out: GI50 against MCF-7
Experimental: as §1

[9] = system: MDA-MB-231, human breast adenocarcinoma; experiment: Growth inhibition by MTS method, MDA-MB-231; format: cell-based; settings: 48 hours with compound, read-out: GI50 against 231
Experimental: as §1

H292, human lung cancer = experiment: Growth inhibition by MTS method, H292; format: cell-based; settings: NCI-H292, 48 hours with compound, read-out: GI50 against H292
Experimental: as §1

[10] = system: LNCaP, human prostate cancer; experiment: Growth inhibition by MTS method, LNCaP; format: cell-based; settings: 48 hours with compound, read-out: GI50 against LNCaP
Experimental: as §1

[11] = system: SK-N-SH, human neuroblastoma; experiment: Growth inhibition by MTS method, SK-N-SH; format: cell-based; settings: 48 hours with compound, read-out: GI50 against SK-N-SH
Experimental: as §1

[12] = system: PANC-1, human pancreatic ductal carcinoma; experiment: Growth inhibition by MTS method, PANC-1; format: cell-based; settings: 48 hours with compound, read-out: GI50 against PANC-1
Experimental: as §1

[13] = system: SK-OV-3, human ovary adenocarcinoma; experiment: Growth inhibition by MTS method, SK-OV-3; format: cell-based; settings: 48 hours with compound, read-out: GI50 against SK-OV-3
Experimental: as §1

[14] = system: SGC-7901, human gastric adenocarcinoma; experiment: Growth inhibition by MTS method, SGC-7901; format: cell-based; settings: 48 hours with compound, read-out: GI50 against SGC-7901
Experimental: as §1

[15] = system: Raji, human Burkitts Lymphoma; experiment: Growth inhibition by MTS method, Raji; format: cell-based; settings: 48 hours with compound, read-out: GI50 against Raji
Experimental: as §1

[16] = system: HL-60, human myloid leukemia; experiment: Growth inhibition by MTS method, HL-60; format: cell-based; settings: 48 hours with compound, read-out: GI50 against HL-60
Experimental: as §1

28SC, human macrophage = experiment: Growth inhibition by MTS method, 28SC; format: cell-based; settings: 48 hours with compound, read-out: GI50 against 28SC
Experimental: as §1

[17] = system: Jurkat, human T cell leukemia; experiment: Growth inhibition by MTS method, Jurkat; format: cell-based; settings: 48 hours with compound, read-out: GI50 against Jurkat
Experimental: as §1

SMILES	GI50 [2] [µM]	GI50 [3] [µM]	GI50 [4] [µM]	GI50 [5] [µM]	GI50 [6] [µM]	GI50 [7] [µM]	GI50 [8] [µM]	GI50 [9] [µM]	GI50 (H292, human lung cancer) [µM]	GI50 [10] [µM]	GI50 [11] [µM]	GI50 [12] [µM]	GI50 [13] [µM]	GI50 [14] [µM]	GI50 [15] [µM]	GI50 [16] [µM]	GI50 (28SC, human macrophage) [µM]	GI50 [17] [µM]	further results
Nc1ccccc1NC(=O)c1ccc(CNc2ccc(F)cc2)cc1 [CS02100019, N-(2-aminophenyl)-4-[N-(4-fluorophenyl)aminomethyl]benzamide]	2.5	50	50	50	3.2	25	5	7.9	50	10	50	5	50	50	2	0.5	2	1	IC50 ([1]; HDAC activity, HeLa extract): > 50 µM; % of inhibition of HDAC activity ([1]; concentration 1 μM): 11.3%; % of inhibition of HDAC activity ([1]; concentration 5 μM): 24.9%; % of inhibition of HDAC activity ([1]; concentration 10 μM): 28.4%; % of inhibition of HDAC activity ([1]; concentration 50 μM): 29.8%
Nc1cc(F)ccc1NC(=O)c1ccc(CNC(=O)/C=C/c2cccnc2)cc1 [CS02100055, N-(2-amino-4-fluorophenyl)-4-[N-(Pyridin-3-ylacryloyl)aminomethyl]benzamide]	2	40	25	16	4	50	5	7.9	50	4	50	6.3	50	50	4	0.4	5.8	1.5	–
Nc1ccccc1NC(=O)c1ccc(CNC(=O)OCc2cccnc2)cc1 [MS-275, N-(2-aminophenyl)-4-[N-(pyridin-3-ylmethoxycarbonyl)aminomethyl]benzamide, reference compound]	1	25	13	20	3.2	16	6.3	5	16	2.5	50	5	50	50	6.3	0.32	4	1.6	–

Reference: patent US7244751B2, “Histone deacetylase inhibitors of novel benzamide derivatives with potent differentiation and anti-proliferation activity” (Shenzhen Chipscreen Biosciences Ltd., priority 2003, dated 2007)
